# In ChEMBL document CHEMBL1122462, “Potential antiatherosclerotic agents. 4. [(Functionalized-alkyl)amino]benzoic acid analogues of cetaben” (1983):
# “And” between values parts separate entries of the source, which are not always exact repeats. Equal entries are not always repeated.
# Key:
# [1] = target: T1, Sterol O-acyltransferase 1 (Rattus norvegicus) (UniProt O70536); test: In vitro inhibitory activity against acyl coenzyme A:cholesterol acyltransferase; design: concentration or dose not given beside the values; details: concentration not given here
# T1 sequence (whole entry): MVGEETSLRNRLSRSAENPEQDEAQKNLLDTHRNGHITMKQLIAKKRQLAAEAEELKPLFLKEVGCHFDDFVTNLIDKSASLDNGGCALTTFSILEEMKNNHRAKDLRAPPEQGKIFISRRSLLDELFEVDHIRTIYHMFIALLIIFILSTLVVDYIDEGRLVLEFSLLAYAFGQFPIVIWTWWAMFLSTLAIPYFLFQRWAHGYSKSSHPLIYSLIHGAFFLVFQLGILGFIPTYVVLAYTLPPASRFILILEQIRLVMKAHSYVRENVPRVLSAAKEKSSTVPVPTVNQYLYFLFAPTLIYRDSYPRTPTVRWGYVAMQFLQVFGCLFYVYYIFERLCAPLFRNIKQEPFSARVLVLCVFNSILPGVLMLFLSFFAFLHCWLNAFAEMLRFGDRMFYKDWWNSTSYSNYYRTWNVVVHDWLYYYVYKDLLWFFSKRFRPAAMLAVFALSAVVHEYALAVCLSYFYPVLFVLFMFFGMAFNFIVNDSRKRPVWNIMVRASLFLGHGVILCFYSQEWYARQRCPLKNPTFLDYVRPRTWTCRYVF
# Rattus norvegicus [2] = test: In vivo Triglyceride lowering activity at a dose of 0.10 % of the diet; assay type: functional
# Rattus norvegicus [3] = test: In vivo sterol lowering activity at dose of 0.10 % of the diet; assay type: functional
# Rattus norvegicus [4] = test: In vivo Triglyceride lowering activity at dose as 0.01 % of the diet; assay type: functional
# Rattus norvegicus [5] = test: In vivo Sterol lowering activity at dose as 0.01% of the diet; assay type: functional
# Rattus norvegicus [6] = test: In vivo Triglyceride lowering activity at dose as 0.03 % of the diet; assay type: functional
# Rattus norvegicus [7] = test: In vivo sterol lowering activity, dosed as 0.03 % of the diet; assay type: functional
Compound,inhibition [1],serum triglyceride level (% of control) (Rattus norvegicus [2]) [%],"serum sterol level, % of control (Rattus norvegicus [3]) [%]",serum triglyceride level (% of control) (Rattus norvegicus [4]) [%],"serum sterol level, percent of control (Rattus norvegicus [5]) [%]",triglyceride lowering activity (Rattus norvegicus [6]) [%],"serum sterol level, percent of control (Rattus norvegicus [7]) [%]"
CCCCOCCCCCCCCCCCNc1ccc(C(=O)O)cc1,< 62%,<44,91,74,<86,,
O=C(O)c1ccc(NCCCCCCCCCCCCNc2ccc(C(=O)O)cc2)cc1,< 60%,89,103,,,,
CC(C)(C)CCCCCCCCCCCCCCNc1ccc(C(=O)[O-])cc1.[Na+],,<30,<44,<66,<72,<55,<53
O=C(O)c1ccc(NCCCCCCCCCCCSc2ccc(C(=O)O)cc2)cc1,< 29%,78,98,,,92,104
Br.CCOC(=O)c1ccc(NC(=O)CCCCCCCCCCSC(=N)N)cc1,< 91%,96,92,,,,
COC(=O)c1ccc(NC(=O)CCCCCCCCCCOc2ccc(C(=O)OC)cc2)cc1,< 63%,118,94,,,,
CCCCCCCCCCC(S)CCCCCNc1ccc(C(=O)O)cc1 (stereo unspecified),< 79%,<43,84,,,,
CCCCCCCCCCCCCCCCN(CS(=O)(=O)[O-])c1ccc(C(=O)[O-])cc1.[Na+].[Na+],,89,<75,77,89,95,91
CC(C)(C)CCCCCCCCCCCCCCNc1ccc(C(=O)O)cc1 [listing 1 of 2 here],,<20,<48,<59,<69,<42,<53
O=C(O)CCCCCCCCCCCCCCCNc1ccc(C(=O)O)cc1 [listing 1 of 2 here],,96,92,124,101,90,92
CCCCCCCCCCC(C)(O)CCCCCNc1ccc(C(=O)OCC)cc1 (stereo unspecified),< 59%,<28,<82,,,,
O=C(O)c1ccc(N2CCCC2=O)cc1,0%,,,,,,
C[Si](C)(C)CCCCCCCCCCCCCCNc1ccc(C(=O)[O-])cc1.[Na+],,<22,<39,<55,75,<43,<56
CCOC(=O)c1ccc(NCCCCCCCCCCCNc2ccc(C(=O)OCC)cc2)cc1,< 68%,67,92,,,,
CCOC(=O)c1ccc(NCCCCCCCCCCNc2ccc(C(=O)OCC)cc2)cc1,7%,98,140,,,,
CCOC(=O)c1ccc(NCCCCCCCCCCCCCCCCSCC)cc1,< 10%,<58,<89,,,,
CCOC(=O)c1ccc(N(CCCCCCCCCCCBr)C(=O)OCc2ccccc2)cc1,< 71%,91,100,,,,
CCCCCCCCCCCCCCCCN(CS(=O)(=O)O)c1ccc(C(=O)O)cc1,7% and < 32%,,,,,,
CCCCCCCCCC/C(CCCCCNc1ccc(C(=O)O)cc1)=N/O,,<31,<75,<52,86,<30,<84
CCOC(=O)c1ccc(NCCCCCCCCCCCC2CCCCC2)cc1,12%,<50,80,,,,

Compound,inhibition [1],serum triglyceride level (% of control) (Rattus norvegicus [2]) [%],"serum sterol level, % of control (Rattus norvegicus [3]) [%]",serum triglyceride level (% of control) (Rattus norvegicus [4]) [%],"serum sterol level, percent of control (Rattus norvegicus [5]) [%]",triglyceride lowering activity (Rattus norvegicus [6]) [%],"serum sterol level, percent of control (Rattus norvegicus [7]) [%]"
C[Si](C)(C)CCCCCCCCCCCCCCNc1ccc(C(=O)O)cc1,< 60%,,,,,,
CCCCCCCCCCC(C)(O)CCCCCNc1ccc(C(=O)O)cc1 (stereo unspecified),< 53%,<37,<73,,,,
CCOC(=O)c1ccc(NCCCCCCCCCCCCNc2ccc(C(=O)OCC)cc2)cc1,2%,<68,103,,,,
COCCCCCCCCCCCCCCCCN(C(C)=O)c1ccc(C(=O)O)cc1,< 22%,93,100,,,,
CCOC(=O)c1ccc(NC(=O)C(F)(F)C(F)(F)C(F)(F)C(F)(F)C(F)(F)C(F)(F)C(F)(F)F)cc1,0%,,<69,<61,<68,<43,<73
CCOC(=O)c1ccc(NCCCCCCCCCCCSc2ccc(C(=O)OCC)cc2)cc1,< 45%,132,102,,,,
CCOC(=O)c1ccc(NC(=O)CCCCCCCCCCBr)cc1,< 71%,100,115,,,,
CCOC(=O)c1ccc(NCCCCCCCCCCCO)cc1,< 60%,93,94,,,,
CCCCCCCCCCC(CCCCCNc1ccc(C(=O)OCC)cc1)SC(C)=O (stereo unspecified),< 26%,<46,94,,,,
CCOC(=O)c1ccc(NCCCCCCCCCCCCCCCCS)cc1,8%,<51,90,,,,
CCCCCCCCCCCCCCCC(=O)Nc1ccc(C(=O)OCC)cc1,,,91,,,,
CCCCSCCCCCCCCCCC(=O)Nc1ccc(C(=O)OC)cc1,< 56%,81,92,,,,
CC(C)(C)CCCCCCCCCCCCCCNc1ccc(C(=O)O)cc1 [listing 2 of 2 here],< 74%,,,,,,
CCCCCCCCCCC(O)CCCCCNc1ccc(C(=O)OCC)cc1 (stereo unspecified),< 51%,<39,93,,,,
CCOC(=O)c1ccc(NCCCCCCCCCCCOc2ccc(C(=O)OC)cc2)cc1,< 52%,<72,100,,,,
C[Si](C)(C)CCCCCCCCCCCNc1ccc(C(=O)O)cc1,< 56%,,,,,,
O=C(O)CCCCCCCCCCCCCCCNc1ccc(C(=O)O)cc1 [listing 2 of 2 here],0% and 9%,,,,,,
O=C(O)c1ccc(NCCCCCCCCCCNc2ccc(C(=O)O)cc2)cc1,8%,100,93,,,,
C[Si](C)(C)CCCNc1ccc(C(=O)O)cc1,< 23% and 12%,,,,,,
